pIC50: −log10 of the molar value.
Molecular target: T1, APOL1 (Homo sapiens, UniProt O14791)
T1 sequence (O14791 1-398): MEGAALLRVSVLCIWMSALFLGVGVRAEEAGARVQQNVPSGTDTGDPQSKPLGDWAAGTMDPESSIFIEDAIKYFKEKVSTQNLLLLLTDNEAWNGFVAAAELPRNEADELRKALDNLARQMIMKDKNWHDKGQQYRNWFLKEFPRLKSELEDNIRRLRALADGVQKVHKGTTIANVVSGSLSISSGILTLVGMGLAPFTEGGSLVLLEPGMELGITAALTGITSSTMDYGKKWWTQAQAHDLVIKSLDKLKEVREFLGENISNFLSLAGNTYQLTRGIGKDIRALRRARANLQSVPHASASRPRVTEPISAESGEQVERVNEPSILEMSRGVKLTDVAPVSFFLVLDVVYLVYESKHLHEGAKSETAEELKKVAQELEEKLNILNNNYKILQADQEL
Experiment: MultiTox-Fluor Multiplex Cytotoxicity Assay, tet-inducible APOL1 T-REx-HEK293 cells (G0, G1 or G2 clone not specified for Table 20)
Assay type: cell-based
Settings: tet-induced, 24 hours with compound, ratio of dead to live cells, read-out: IP50 (i.e., IC50 for cell proliferation)
Method: Human embryonic kidney (HEK293) cell lines containing a tet-inducible expression system (T-REx™; Invitrogen, Carlsbad, CA) and Adeno-associated virus site 1 pAAVS1-Puro-APOL1 G0 or pAAVS1-Puro-APOL1 G1 or pAAVS1-Puro-APOL1 G2 Clones G0 DC2.13, G1 DC3.25, and G2 DC4.44 were grown in a T-225 flask at ˜90% confluency in cell growth media (DMEM, 10% Tet-free FBS, 2 mM L-glutamine, 100 Units/mL penicillin-streptomycin, 5 μg/mL blasticidin S HCl, 1 μg/mL puromycin dihydrochloride). Cells were washed with DPBS and then trypsinized to dissociate from the flask. Media was used to quench the trypsin, cells were then pelleted at 200 g and resuspended in fresh cell assay media (DMEM, 2% Tet-free FBS, 2 mM L-glutamine, 100 Units/mL penicillin-streptomycin). Cells were counted and diluted to 1.17×10^6 cells/mL. 20 μL of cells (23,400/well) were dispensed in every well of a 384-well Poly-D-Lysine coated plate using the Multidrop dispenser. The plates were then incubated at room temperature for one hour.
Tetracycline is needed to induce APOL1 expression. 1 mg/mL tet stock in water was diluted to 250 ng/mL (5×) in cell assay media. 60 μL of cell assay media (no tet control) was dispensed in columns 1 and 24, and 60 μL of 5× tet in 384-PP-round bottom plate was dispensed in columns 2 to 23 with the Multidrop dispenser.
Assay ready plates from the Global Compound Archive were ordered using template 384_APOL1Cell_DR10n2_50 uM_v3. Compounds were dispensed at 200 nL in DMSO. The final top concentration was 10 μM with a 10 point 3-fold dilution in duplicate in the MultiTox assay.
20 μL was transferred from the 5× tet plate to the ARP and mixed, then 5 μL of 5× tet and the compounds were transferred to the cell plate and mixed using the Bravo. The cell plate was placed in the humidified 37° C. 5% CO2 incubator for 24 hours.
The MultiTox-Fluor Multiplex Cytotoxicity Assay was performed in accordance with the manufacturer's protocol. After cells were incubated with tet and compound for 24 hours, 25 μL of 1× MultiTox reagent was added to each well using the Multidrop dispenser; the plates were placed on a plate shaker (600 rpm) for 2 minutes, then centrifuged briefly and placed back in the 37° C. incubator for 30 minutes. The cell viability (excitation: 400 nm, emission: 486 nm) and cytotoxicity (excitation: 485 nm, emission: 535 nm) were read using the EnVision plate reader. A ratio of dead (cytotoxicity) to live (viability) cells was reported. Data was exported and analyzed in Genedata. Data was normalized using percent of control, no tet (100% viability), and 50 ng/mL tet treated (0% viability), and fit using Smart Fit settings in Genedata.

Row | SMILES | pIC50
1 | CC(CO)(CO)Cn1cc(CN2CCC3(CC2)C(=O)Nc2ccc(Cl)cc23)cn1 [Compound 2] | ≥ 7.30
2 | C[C@H]1C[C@@]2(CCN1Cc1cnn(CC(=O)N(C)C)c1)C(=O)Nc1ccc(Cl)cc12 [Compound 76] | ≥ 7.30
3 | C[C@H]1C[C@@]2(CCN1Cc1cnn(CCS(C)(=O)=O)c1)OC[C@H](O)c1ccc(Cl)cc12 [Compound 132] | ≥ 7.30
4 | CS(=O)(=O)CCn1cc(CN2CCC3(CC2)C(=O)N(CC(F)(F)F)c2ccc(Cl)cc23)cn1 [Compound 50] | 6.30 to 7.30
5 | CN1C(=O)C2(CCN(Cc3cn(CCO)nn3)CC2)c2cc(Cl)ccc21 [Compound 43] | ≤ 6.30
6 | C[C@H]1C[C@@]2(CCN1Cc1cn(CC(O)C(C)(C)O)nn1)OCCc1ccc(Cl)cc12 (some centres unmarked) [Compound 156] | ≥ 7.30
7 | C[C@H]1CC2(CCN1Cc1cnn(CCS(C)(=O)=O)c1)C(=O)Nc1ccc(Cl)cc12 (stereo in doubt) [Compound 74, (2′S, 3R)-5-chloro-2′-methyl-1′-[[1-(2-methylsulfonylethyl)pyrazol-4-yl]methyl]spiro[indoline-3,4′-piperidine]-2-one] | ≤ 6.30
8 | Cc1cc(CN2CC[C@]3(C[C@@H]2C)OCCc2ccc(Cl)cc23)[nH]n1 [Compound 109] | ≥ 7.30
9 | Cc1ccc2c(c1)[C@@]1(CCN(Cc3cnc(NC(C)(C)CO)nc3)[C@@H](C)C1)OCC2 [Compound 95] | ≤ 6.30
10 | C[C@H]1C[C@@]2(CCN1Cc1cn(CCCO)nn1)OCCc1ccc(Cl)cc12 [Compound 147] | ≥ 7.30
11 | Cc1ccc2c(c1)C1(CCN(Cc3ccccc3)C(C)C1)OCC2 (centres unmarked) [Compound 136] | 6.30 to 7.30
12 | NC(=O)C1OC2(CCN(Cc3c[nH]c4ccncc34)CC2)c2cc(Cl)ccc21 (centres unmarked) [Compound 264] | ≤ 6.30
13 | NC(=O)C1OC2(CCN(Cc3cnn(C[C@@H](O)CO)c3)CC2)c2cc(Cl)ccc21 (some centres unmarked) [Compound 283] | 6.30 to 7.30
14 | C[C@H]1C[C@@]2(CCN1Cc1cnn3c1CCC3)OCCc1ccc(Cl)cc12 [Compound 113] | ≤ 6.30
15 | O=C(O)C1OC2(CCN(Cc3cnn(-c4ccccc4)c3)CC2)c2cc(Cl)ccc21 (centres unmarked) [Compound 192, 5-chloro-1′-[(1-phenylpyrazol-4-yl)methyl]spiro[1H-isobenzofuran-3,4′-piperidine]-1-carboxylic acid] | ≤ 6.30
16 | CNC(=O)C1OC2(CCN(Cc3cnn(-c4ccccc4)c3)CC2)c2cc(C#N)ccc21 (centres unmarked) [Compound 204, 5-cyano-N-methyl-1′-[(1-phenylpyrazol-4-yl)methyl]spiro[1H-isobenzofuran-3,4′-piperidine]-1-carboxamide] | 6.30 to 7.30
17 | CN(C)c1ncc(CN2CCC3(CC2)C(=O)Nc2ccc(Cl)cc23)cn1 [Compound 9] | 6.30 to 7.30
18 | CCn1cc(CN2CC[C@]3(C[C@@H]2C)OCCc2ccc(Cl)cc23)nn1 [Compound 154] | 6.30 to 7.30
19 | CN1C(=O)C2(CCN(Cc3cnn(CCS(C)(=O)=O)c3)CC2)c2cc(C(F)(F)F)ccc21 [Compound 83] | ≤ 6.30
20 | CNC(=O)C1OC2(CCN(Cc3cnn(-c4ccccc4)c3C)CC2)c2cc(Cl)ccc21 (centres unmarked) [Compound 299, 6-chloro-N-methyl-1′-((5-methyl-1-phenyl-1H-pyrazol-4-yl)methyl)-3H-spiro[isobenzofuran-1,4′-piperidine]-3-carboxamide] | ≤ 6.30
21 | O=C1Nc2ccc(Cl)cc2C12CCN(Cc1cccc(OC(F)F)c1)CC2 [Compound 14] | ≤ 6.30
22 | C[C@H]1C[C@@]2(CCN1Cc1cnn(CCS(C)(=O)=O)c1)OC[C@@H](O)c1ccc(Cl)cc12 [Compound 133] | ≥ 7.30

Row | SMILES | pIC50
23 | Cc1ccc2c(c1)C1(CCN(Cc3cnn(CCS(C)(=O)=O)c3)[C@@H](C)C1)CC2O (stereo partly drawn) [Compound 308, (2′S)-2′,5-dimethyl-1′-[[1-(2-methylsulfonylethyl)pyrazol-4-yl]methyl]spiro[indane-3,4′-piperidine]-1-ol] | ≥ 7.30
24 | Cn1cc(CN2CCC3(CC2)OC(C(N)=O)c2ccc(Cl)cc23)ccc1=O (centres unmarked) [Compound 253] | 6.30 to 7.30
25 | Cc1nc(CN2CCC3(CC2)OC(C(N)=O)c2ccc(Cl)cc23)c[nH]1 (centres unmarked) [Compound 222] | ≤ 6.30
26 | C[C@H]1C[C@@]2(CCN1Cc1ccccn1)OCCc1ccc(Cl)cc12 [Compound 138] | ≤ 6.30
27 | CN1C(=O)C2(CCN(Cc3cnn(CCS(C)(=O)=O)c3)CC2)c2cc(OC(F)(F)F)ccc21 [Compound 87] | ≤ 6.30
28 | C[C@H]1C[C@@]2(CCN1Cc1cn(Cc3cnn4c3C(=O)N(C)CC4)nn1)OCCc1ccc(Cl)cc12 [Compound 166] | 6.30 to 7.30
29 | C[C@H]1C[C@@]2(CCN1Cc1cn(CCc3nccc(=O)[nH]3)nn1)OCCc1ccc(Cl)cc12 [Compound 183] | 6.30 to 7.30
30 | CS(=O)(=O)CCn1cc(CN2CCC3(CC2)CC(O)c2ccc(Cl)cc23)cn1 (centres unmarked) [Compound 302, 5-chloro-1′-[[1-(2-methylsulfonylethyl)pyrazol-4-yl]methyl]spiro[indane-3,4′-piperidine]-1-ol] | 6.30 to 7.30
31 | CS(=O)(=O)CCn1cc(CN2CCC3(CC2)OC(C(N)=O)c2ccc(Cl)cc23)nn1 (centres unmarked) [Compound 208, 5-chloro-1′-[[1-(2-methylsulfonylethyl)triazol-4-yl]methyl]spiro[1H-isobenzofuran-3,4′-piperidine]-1-carboxamide] | ≤ 6.30
32 | CS(=O)(=O)CCn1cc(CN2CCC3(CC2)OCC(O)c2ccc(Cl)cc23)cn1 (centres unmarked) [Compound 130] | 6.30 to 7.30
33 | C[C@H]1C[C@@]2(CCN1Cc1ccncc1)OCCc1ccc(Cl)cc12 [Compound 118] | ≥ 7.30
34 | NC(=O)C1OC2(CCN(Cc3c[nH]c4cnccc34)CC2)c2cc(Cl)ccc21 (centres unmarked) [Compound 248] | ≥ 7.30
35 | Cc1nc(C)c(CN2CCC3(CC2)OC(C(N)=O)c2ccc(Cl)cc23)o1 (centres unmarked) [Compound 276] | ≤ 6.30
36 | Cc1ccc2c(c1)C1(CCN(Cc3cn(CCS(C)(=O)=O)nn3)[C@@H](C)C1)OC2(C)C (single isomer, unassigned) [Compound 290, (2′S)-2′,3,3,6-tetramethyl-1′-((1-(2-(methylsulfonyl)ethyl)-1H-1,2,3-triazol-4-yl)methyl)-3H-spiro[isobenzofuran-1,4′-piperidine]] | ≤ 6.30
37 | Cc1ccc2c(c1)C1(CCN(Cc3cnn(C)c3)C(C)C1)OCC2 (centres unmarked) [Compound 92] | ≥ 7.30
38 | C[C@H]1C[C@@]2(CCN1Cc1cnn(C[C@@H](O)C(C)(C)O)c1)OCCc1ccc(Cl)cc12 [Compound 124] | ≥ 7.30
39 | C[C@H]1C[C@@]2(CCN1Cc1cnn(-c3ccccn3)c1)OCCc1ccc(Cl)cc12 [Compound 117] | ≥ 7.30
40 | Cc1cc(CN2CCC3(CC2)OC(C(N)=O)c2ccc(Cl)cc23)nn1C (centres unmarked) [Compound 247] | ≤ 6.30
41 | C[C@H]1C[C@@]2(CCN1Cc1cn(C3CC(=O)N(C)C3)nn1)OCCc1ccc(Cl)cc12 (some centres unmarked) [Compound 146] | ≥ 7.30
42 | C[C@H]1CC2(CCN1Cc1cnn(-c3ccccc3)c1)OC(C(N)=O)c1ccc(Cl)cc12 (stereo partly drawn) [Compound 292, (2′S)-5-chloro-2′-methyl-1′-[(1-phenylpyrazol-4-yl)methyl]spiro[1H-isobenzofuran-3,4′-piperidine]-1-carboxamide] | ≥ 7.30
43 | CNC(=O)Cn1cc(CN2CCC3(CC2)C(=O)Nc2ccc(C)cc23)cn1 [Compound 28] | ≤ 6.30
44 | CCc1ccc2c(c1)C1(CCN(Cc3cnn(-c4ccccc4)c3)CC1)OC2C(N)=O (centres unmarked) [Compound 205, 5-ethyl-1′-[(1-phenylpyrazol-4-yl)methyl]spiro[1H-isobenzofuran-3,4′-piperidine]-1-carboxamide] | ≥ 7.30

From US20250195483A1, “SPIRO PIPERIDINE DERIVATIVES AS INHIBITORS OF APOL1 AND METHODS OF USING SAME” (Vertex Pharmaceuticals Incorporated, priority 2022, published 2025)
